{
  "source": "paper PMC7044277",
  "about": "(Nature Communications, 2020)",
  "assay_type_in_all_cases": "cell-based",
  "key": {"320 non-olfactory GPCRs [1]": {"molecular_target": "T1, 320 non-olfactory GPCRs (Homo sapiens, UniProt Q969V1)", "T1 construct": "expressed in transfected cells; host or cells: HTLA cells", "T1 sequence (Q969V1 whole entry)": "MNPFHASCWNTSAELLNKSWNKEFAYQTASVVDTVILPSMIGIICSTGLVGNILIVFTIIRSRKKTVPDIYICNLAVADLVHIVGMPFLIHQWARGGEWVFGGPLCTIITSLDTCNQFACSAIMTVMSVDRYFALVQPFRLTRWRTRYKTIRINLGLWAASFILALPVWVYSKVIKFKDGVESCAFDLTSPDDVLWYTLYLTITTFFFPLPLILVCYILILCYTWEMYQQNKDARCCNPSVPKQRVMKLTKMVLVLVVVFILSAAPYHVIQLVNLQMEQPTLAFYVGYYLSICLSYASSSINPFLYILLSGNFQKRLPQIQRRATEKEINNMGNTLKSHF", "settings": "receptor MCHR2R; replicate values, Fig_4g"}, "320 non-olfactory GPCRs [2]": {"molecular_target": "320 non-olfactory GPCRs (Homo sapiens, UniProt Q16581)", "sequence (Q16581 whole entry)": "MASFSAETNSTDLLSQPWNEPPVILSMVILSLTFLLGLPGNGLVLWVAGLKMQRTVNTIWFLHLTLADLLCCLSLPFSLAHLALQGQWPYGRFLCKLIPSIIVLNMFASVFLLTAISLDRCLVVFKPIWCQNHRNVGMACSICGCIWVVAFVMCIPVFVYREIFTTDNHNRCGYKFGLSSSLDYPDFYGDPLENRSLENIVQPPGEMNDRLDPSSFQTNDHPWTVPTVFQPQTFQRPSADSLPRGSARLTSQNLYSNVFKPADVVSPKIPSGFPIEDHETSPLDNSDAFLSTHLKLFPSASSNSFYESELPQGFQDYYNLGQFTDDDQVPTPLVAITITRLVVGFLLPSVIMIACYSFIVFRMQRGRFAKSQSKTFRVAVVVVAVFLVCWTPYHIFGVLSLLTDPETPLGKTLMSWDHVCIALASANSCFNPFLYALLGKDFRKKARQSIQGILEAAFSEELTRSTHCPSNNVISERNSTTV"}, "320 non-olfactory GPCRs [3]": {"molecular_target": "T2, 320 non-olfactory GPCRs (Homo sapiens, UniProt P29275)", "T2 construct": "expressed in transfected cells; host or cells: HTLA cells", "T2 sequence (P29275 whole entry)": "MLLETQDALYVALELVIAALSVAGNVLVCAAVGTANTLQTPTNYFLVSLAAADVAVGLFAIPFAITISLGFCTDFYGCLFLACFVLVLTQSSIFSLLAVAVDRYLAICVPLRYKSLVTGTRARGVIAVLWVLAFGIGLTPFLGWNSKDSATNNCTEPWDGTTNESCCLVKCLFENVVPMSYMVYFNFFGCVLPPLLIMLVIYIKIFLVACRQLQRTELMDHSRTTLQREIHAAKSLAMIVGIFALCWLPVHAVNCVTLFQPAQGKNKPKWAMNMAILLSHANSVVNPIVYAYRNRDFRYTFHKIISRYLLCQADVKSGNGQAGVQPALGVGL"}, "320 non-olfactory GPCRs [4]": {"molecular_target": "T3, 320 non-olfactory GPCRs (Homo sapiens, UniProt P47901)", "T3 construct": "expressed in transfected cells; host or cells: HTLA cells", "T3 sequence (P47901 whole entry)": "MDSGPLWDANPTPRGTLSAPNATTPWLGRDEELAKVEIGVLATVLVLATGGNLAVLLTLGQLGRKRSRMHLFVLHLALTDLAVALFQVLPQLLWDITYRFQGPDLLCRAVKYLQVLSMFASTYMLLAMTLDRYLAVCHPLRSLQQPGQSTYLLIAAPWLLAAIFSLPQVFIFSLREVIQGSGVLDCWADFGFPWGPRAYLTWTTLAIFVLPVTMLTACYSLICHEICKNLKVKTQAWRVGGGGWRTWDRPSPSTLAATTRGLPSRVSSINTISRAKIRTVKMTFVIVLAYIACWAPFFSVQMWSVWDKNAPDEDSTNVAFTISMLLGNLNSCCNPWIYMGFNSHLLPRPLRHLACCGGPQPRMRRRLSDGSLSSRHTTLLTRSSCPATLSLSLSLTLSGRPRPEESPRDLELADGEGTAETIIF"}},
  "note": "Where “and” joins values, the source holds several entries; their conditions need not be identical. Equal entries are not always repeated.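 Wherever Fold of Basal is given: compound tested at 1 µM final concentration.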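 Wherever GPCRome agonism screen response is given: fold over basal response of each receptor without drug.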",
  "data": [
    {"smiles": "CCOc1cccc2cc(C(C)NCC3(O)CCCCC3)oc12", "note": "(stereo not shown) [O4LE6]", "values": [
      {"measurement": "GPCRome agonism screen response", "setting": "320 non-olfactory GPCRs [1]", "value": "1.156 and 0.4645 and 1.04 and 0.6466"},
      {"measurement": "Fold of Basal", "setting": "320 non-olfactory GPCRs [2]", "value": "1.165 and 1.05 and 0.9669 and 0.8841"},
      {"measurement": "Fold of Basal", "setting": "320 non-olfactory GPCRs [3]", "value": "1.3919 and 1.763 and 1.526 and 2.198"},
      {"measurement": "Fold of Basal", "setting": "320 non-olfactory GPCRs [4]", "value": "1.0215 and 1.01 and 1.094 and 0.8472"}
    ]}
  ]
}
